Assay results reported in patent US6949574B2 (Bristol-Myers Squibb Company, priority 2002, dated 2005).
Where two headings read alike, the source gives them in different places.

Tests used:
human FAAH = target: T1, human FAAH (Homo sapiens, UniProt O00519); experiment: FAAH activity in membrane homogenates of H4-FAAH cells, [3H]-anandamide hydrolysis; type: biochemical; conditions: H4-FAAH cell membranes, 10 μM anandamide, room temperature, one hour; read-out: IC50
T1 construct: expressed in transfected cells; host or cells: H4 cells (H4-FAAH, Geneticin-selected); crude membrane homogenates
T1 sequence (O00519 1-579): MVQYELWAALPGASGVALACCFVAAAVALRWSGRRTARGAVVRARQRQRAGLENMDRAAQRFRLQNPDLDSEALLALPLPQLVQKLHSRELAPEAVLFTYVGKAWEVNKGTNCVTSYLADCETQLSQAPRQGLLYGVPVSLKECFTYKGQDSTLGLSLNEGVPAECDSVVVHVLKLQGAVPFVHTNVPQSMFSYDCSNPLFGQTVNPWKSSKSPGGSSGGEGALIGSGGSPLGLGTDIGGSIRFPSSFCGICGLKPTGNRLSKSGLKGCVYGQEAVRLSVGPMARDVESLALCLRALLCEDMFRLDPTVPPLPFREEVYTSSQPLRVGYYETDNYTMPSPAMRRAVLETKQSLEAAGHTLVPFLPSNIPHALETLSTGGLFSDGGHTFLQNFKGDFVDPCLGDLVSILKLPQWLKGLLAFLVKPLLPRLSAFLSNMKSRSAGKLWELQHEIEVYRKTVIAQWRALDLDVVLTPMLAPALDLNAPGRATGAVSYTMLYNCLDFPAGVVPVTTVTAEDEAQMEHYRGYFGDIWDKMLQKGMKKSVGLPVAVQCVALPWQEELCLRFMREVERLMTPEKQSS
How it was run: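 Membranes (240 ng protein) from H4 cells expressing transfected human FAAH, incubated 1 h at room temperature in 125 mM Tris-Cl, pH 9.0, with 1.67 nM [3H]-anandamide plus 10 μM anandamide. Aqueous [3H]-ethanolamine counted after methanol/dichloroethane extraction; background set with 10 μM ATFMK. IC50 from four-parameter logistic fit.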

[1] = test system: thermal hyperalgesia induced by paw carrageenan; experiment: Carrageenan-induced thermal hyperalgesia (chronic inflammatory pain); type: in vivo, rat
From the text: FIG. 1 illustrates results from a rat carrageen-induced thermal hypergesia model used for measuring chronic inflammatory pain.
The following in vivo pain models below utilized Example 5. […] Paw carrageenan injection (⋄, 0:45 hr, Carr) produced strong thermal hyperalgesia as evidenced by the short escape latencies seen in vehicle treated rats (⋄, 2:15 hr, Carr) as compared to the long baseline latencies (0:00 hr). […] Data are mean+/−s.e.m. (n=8 per group). *p<0.05, **p<0.01 Tukey's HSD, compared to vehicle.

[2] = test system: acute thermal pain behavior; type: in vivo, rat
From the text: FIG. 2 illustrates results from a rat Hargreaves test used for measuring acute thermal pain.
Data are mean+/−s.e.m. (n=8 per group). **p<0.01 Dunnett's Test, compared to vehicle control.

[3] = test system: carrageenan-induced edema; experiment: Paw edema model (inflammation-induced edema), plethysmometry; type: in vivo, rat
From the text: PAW EDEMA MODEL (Inflammation-induced Edema) The effects of Example 5 on carrageenan-induced edema were examined in a quantitative manner (plethysmometry).

CCCCOc1ccc(NC(=O)O/N=C/c2ccc(F)cc2)cc1 [Example 5, 4-Fluorobenzaldehyde, O-[[(4-butoxyphenyl)amino]carbonyl]oxime]
IC50 (human FAAH): < 10 nM
side effects ([1]; 40 mg/kg, i.p.): No side effects were observed
thermal escape latencies of drug treated animals ([1]; 40 mg/kg, i.p., at 2:15 hr): comparable to baseline
development of thermal hyperalgesia ([1]; 40 mg/kg, i.p., pretreatment before paw carrageenan): suppressed the development of thermal hyperalgesia
thermal escape responses after second injection ([1]; second injection 40 mg/kg i.p. at 3:00 hr, 3:00-4:00 hr): maintained thermal escape responses at basal levels for another hour
side effects ([2]; 10 mg/kg i.v.): No significant side effects were observed
side effects ([2]; 30 mg/kg i.v.): strong sedation, reduced activity and splayed hindlimbs
acute thermal pain behavior ([2]; 10 & 30 mg/kg, i.v. hand infusion, 15 min post injection, did not persist beyond this time): significant reversal of acute thermal pain behavior
inhibition of swelling (combined total paw volume) ([3]; 20 mg/kg ip): no efficacy
inhibition of swelling (combined total paw volume) ([3]; 40 mg/kg ip at -30 min and +2 hr relative to carrageenan, measured 3 hours post-injection): 26%
